From PubChem BioAssay AID1963973 (Molecular Pharmacology Branch, DTP, NCI, 2024)
pIC50: −log10 of the molar value.

Test system: 883617-216-R-J1-PDC tumor spheroids, viability
Experiment: Anticancer human tumor 883617-216-R-J1-PDC patient-derived bladder carcinoma cell line growth inhibition [PI3K]
Conditions: spheroids with HUVEC and MSC; for pIC50: curve of first compound; for viability, T/C: stronger effect = lower value
Summary of the method: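 Tumor cells were combined with HUVEC and MSCs into spheroids, then dosed with PI3K-inhibitor combinations over half-log ranges capped near clinical Cmax or 10 microM.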

[1] = second compound 0.0316 µM, first compound 0.0316 µM
[2] = second compound 0.0316 µM, first compound 0.1 µM
[3] = second compound 0.1 µM, first compound 0.0316 µM
[4] = second compound 0.1 µM, first compound 0.1 µM
[5] = second compound 0.316 µM, first compound 0.0316 µM
[6] = second compound 0.316 µM, first compound 0.1 µM
[7] = second compound 1 µM, first compound 0.0316 µM
[8] = second compound 1 µM, first compound 0.1 µM
[9] = second compound 3.16 µM, first compound 0.0316 µM
[10] = second compound 3.16 µM, first compound 0.1 µM
[11] = second compound 10 µM, first compound 0.0316 µM
[12] = second compound 10 µM, first compound 0.1 µM
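Note: spheroids exposed to agents for 7 days before the viability read.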

CC(C)NCC(C(=O)N1CCN(c2ncnc3c2C(C)CC3O)CC1)c1ccc(Cl)cc1 (centres undefined) + Cc1nc(NC(=O)N2CCCC2C(N)=O)sc1-c1ccnc(C(C)(C)C(F)(F)F)c1
pIC50 (second compound 0.0316 µM): 6.39
pIC50 (second compound 0.1 µM): 6.67
pIC50 (second compound 0.316 µM): > 7.50
pIC50 (second compound 1 µM): > 7.50
pIC50 (second compound 3.16 µM): > 7.50
pIC50 (second compound 10 µM): > 7.50
viability, T/C [1]: 77%
viability, T/C [2]: 67.7%
viability, T/C (second compound 0.0316 µM, first compound 0.316 µM): 57.6%
viability, T/C (second compound 0.0316 µM, first compound 1 µM): 27.9%
viability, T/C (second compound 0.0316 µM, first compound 3.16 µM): 13.8%
viability, T/C (second compound 0.0316 µM, first compound 10 µM): 8.01%
viability, T/C [3]: 72.8%
viability, T/C [4]: 60.1%
viability, T/C (second compound 0.1 µM, first compound 0.316 µM): 45.5%
viability, T/C (second compound 0.1 µM, first compound 1 µM): 26.7%
viability, T/C (second compound 0.1 µM, first compound 3.16 µM): 16.2%
viability, T/C (second compound 0.1 µM, first compound 10 µM): 6.45%
viability, T/C [5]: 37.7%
viability, T/C [6]: 41%
viability, T/C (second compound 0.316 µM, first compound 0.316 µM): 36.6%
viability, T/C (second compound 0.316 µM, first compound 1 µM): 22.6%
viability, T/C (second compound 0.316 µM, first compound 3.16 µM): 10.9%
viability, T/C (second compound 0.316 µM, first compound 10 µM): 4.92%
viability, T/C [7]: 30.4%
viability, T/C [8]: 29.9%
viability, T/C (second compound 1 µM, first compound 0.316 µM): 24.4%
viability, T/C (second compound 1 µM, first compound 1 µM): 15.2%
viability, T/C (second compound 1 µM, first compound 3.16 µM): 8.01%
viability, T/C (second compound 1 µM, first compound 10 µM): 4.96%
viability, T/C [9]: 17.9%
viability, T/C [10]: 10.5%
viability, T/C (second compound 3.16 µM, first compound 0.316 µM): 10.3%
viability, T/C (second compound 3.16 µM, first compound 1 µM): 9.2%
viability, T/C (second compound 3.16 µM, first compound 3.16 µM): 8.98%
viability, T/C (second compound 3.16 µM, first compound 10 µM): 3.73%
viability, T/C [11]: 7.03%
viability, T/C [12]: 5.88%
viability, T/C (second compound 10 µM, first compound 0.316 µM): 5.22%
viability, T/C (second compound 10 µM, first compound 1 µM): 5.21%
viability, T/C (second compound 10 µM, first compound 3.16 µM): 3.1%
viability, T/C (second compound 10 µM, first compound 10 µM): 2.33%

Cn1ncnc1[C@H]1c2n[nH]c(=O)c3cc(F)cc(c23)N[C@@H]1c1ccc(F)cc1 + Cc1nc(NC(=O)N2CCCC2C(N)=O)sc1-c1ccnc(C(C)(C)C(F)(F)F)c1
pIC50 (second compound 0.0316 µM): < 7.00
pIC50 (second compound 0.1 µM): < 7.00
pIC50 (second compound 0.316 µM): > 9.50
pIC50 (second compound 1 µM): > 9.50
pIC50 (second compound 3.16 µM): > 9.50
pIC50 (second compound 10 µM): > 9.50
viability, T/C (second compound 0.0316 µM, first compound 0.000316 µM): 88.1%
viability, T/C (second compound 0.0316 µM, first compound 0.001 µM): 74%
viability, T/C (second compound 0.0316 µM, first compound 0.00316 µM): 68.2%
viability, T/C (second compound 0.0316 µM, first compound 0.01 µM): 68.5%
viability, T/C [1]: 64.8%
viability, T/C [2]: 52.9%
viability, T/C (second compound 0.1 µM, first compound 0.000316 µM): 66.9%
viability, T/C (second compound 0.1 µM, first compound 0.001 µM): 67.4%
viability, T/C (second compound 0.1 µM, first compound 0.00316 µM): 65.7%
viability, T/C (second compound 0.1 µM, first compound 0.01 µM): 52.4%
viability, T/C [3]: 54.9%
viability, T/C [4]: 52%
viability, T/C (second compound 0.316 µM, first compound 0.000316 µM): 43.5%
viability, T/C (second compound 0.316 µM, first compound 0.001 µM): 47.3%
viability, T/C (second compound 0.316 µM, first compound 0.00316 µM): 49.5%
viability, T/C (second compound 0.316 µM, first compound 0.01 µM): 45.5%
viability, T/C [5]: 35.4%
viability, T/C [6]: 34.9%
viability, T/C (second compound 1 µM, first compound 0.000316 µM): 27.5%
viability, T/C (second compound 1 µM, first compound 0.001 µM): 31.6%
viability, T/C (second compound 1 µM, first compound 0.00316 µM): 23.1%
viability, T/C (second compound 1 µM, first compound 0.01 µM): 26.2%
viability, T/C [7]: 27.2%
viability, T/C [8]: 21.3%
viability, T/C (second compound 3.16 µM, first compound 0.000316 µM): 16%
viability, T/C (second compound 3.16 µM, first compound 0.001 µM): 16.1%
viability, T/C (second compound 3.16 µM, first compound 0.00316 µM): 12%
viability, T/C (second compound 3.16 µM, first compound 0.01 µM): 13%
viability, T/C [9]: 14.1%
viability, T/C [10]: 12%
viability, T/C (second compound 10 µM, first compound 0.000316 µM): 7.59%
viability, T/C (second compound 10 µM, first compound 0.001 µM): 8.2%
viability, T/C (second compound 10 µM, first compound 0.00316 µM): 6.62%
viability, T/C (second compound 10 µM, first compound 0.01 µM): 6.95%
viability, T/C [11]: 7.18%
viability, T/C [12]: 5.36%
